Literature values, collected in patent US20200396998A1, “HERBICIDAL COMBINATIONS” (UPL LTD, priority 2017, published 2020).

System: broadleaf weed
Details: saflufenacil alone; early season broadleaf weed control

## CC(C)N(C)S(=O)(=O)NC(=O)c1cc(-n2c(=O)cc(C(F)(F)F)n(C)c2=O)c(F)cc1Cl [Saflufenacil, N′{2-chloro-4-fluoro-5-[1,2,3,6-tetrahydro-3-methyl-2,6-dioxo-4-(trifluoromethyl)pyrimidin-1-yl]benzoyl}-N-isopropyl-N-methylsulfamide]
  Weed control efficacy over time, in words: reduced beyond 30 days after treatment
